US8952024B2, “Herbicidal pyrimidone derivatives” (E I du Pont de Nemours and Company, priority 2009, dated 2015)
Where two headings read alike, the source gives them in different places.

Columns and labels:
Assay in all cases: Test B pre-/postemergence plant response
Assay type in all cases: in vivo
[1] = test system: Italian ryegrass (Lolium multiflorum); details: for pest or weed control at 125 g/ha: 125 g ai/ha
Outline: (§1)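 Response scores were assigned visually after 13 to 15 days in a greenhouse, comparing treated pots with controls on a 0–100 scale where 100 denotes complete control. Preemergence treatments went onto freshly seeded loam/sand soil; postemergence treatments onto plants 2 to 18 cm tall.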

[2] = test system: Surinam grass (Brachiaria decumbens); details: for pest or weed control at 125 g/ha: 125 g ai/ha
Outline: as §1

[3] = test system: bermudagrass (Cynodon dactylon); details: for pest or weed control at 31 g/ha: 31 g ai/ha; for pest or weed control at 125 g/ha: 125 g ai/ha
Outline: as §1

[4] = test system: blackgrass (Alopecurus myosuroides); details: for pest or weed control at 31 g/ha: 31 g ai/ha; for pest or weed control at 125 g/ha: 125 g ai/ha
Outline: as §1

corn (Zea mays) = details: for Corn plant response rating (crop injury, 0 = no effect, 100 = complete kill) at 31 g/ha: 31 g ai/ha; for Corn plant response rating (crop injury, 0 = no effect, 100 = complete kill) at 125 g/ha: 125 g ai/ha
Outline: as §1

[5] = test system: johnsongrass (Sorghum halepense); details: for pest or weed control at 31 g/ha: 31 g ai/ha; for pest or weed control at 125 g/ha: 125 g ai/ha
Outline: as §1

[6] = test system: lambsquarters (Chenopodium album); details: for pest or weed control at 31 g/ha: 31 g ai/ha; for pest or weed control at 125 g/ha: 125 g ai/ha
Outline: as §1

[7] = test system: large crabgrass (Digitaria sanguinalis); details: for pest or weed control at 31 g/ha: 31 g ai/ha
Outline: as §1

[8] = 62 g ai/ha, postemergence, 0 is no effect, 100 is complete control, 13 to 15 days
[9] = Preemergence, 250 g ai/ha, 0 to 100 scale

With O=C1CCCC(O)=C1C(=O)c1cnc(-c2cccnc2)n(-c2ccccc2)c1=O [Compound 113, 5-[(2-hydroxy-6-oxo-1-cyclohexen-1-yl)carbonyl]-3-phenyl-2-(3-pyridinyl)-4(3H)-pyrimidone] the “Ryegrass, Italian plant response rating (0 to 100 scale)” value [1, 8] was 45, the pest or weed control at 125 g/ha ([1]; Lolium multiflorum, post-emergence, Postemergence, scale 0 to 100 (0 no effect, 100 complete control), read-out: Plant response rating, Ryegrass, Italian) was 50% and the pest or weed control at 250 g/ha ([1]; Lolium multiflorum, post-emergence, Postemergence, 250 g ai/ha, scale 0 to 100 (0 no effect, 100 complete control), read-out: Plant response rating, Ryegrass, Italian) was 85%. The pest or weed control at 31 g/ha ([1]; Lolium multiflorum, pre-emergence, Preemergence, 31 g ai/ha, scale 0 to 100 (0 no effect, 100 complete control), read-out: Plant response rating, Ryegrass, Italian) was 0%, the pest or weed control at 62 g/ha ([1]; Lolium multiflorum, pre-emergence, Preemergence, 62 g ai/ha, scale 0 to 100 (0 no effect, 100 complete control), read-out: Plant response rating, Ryegrass, Italian) was 5% and the pest or weed control at 125 g/ha ([1]; Lolium multiflorum, pre-emergence, Preemergence, scale 0 to 100, 0 no effect, 100 complete control, read-out: Plant response rating, Ryegrass, Italian) was 5%. The “Ryegrass, Italian plant response rating” value [1, 9] was 40, the “Surinam Grass plant response rating (0 to 100 scale)” value [2, 8] was 85 and the “Surinam Grass plant response rating” value [2, 9] was 98. It also gave a pest or weed control at 125 g/ha ([2]; Urochloa decumbens, post-emergence, Postemergence, scale 0 to 100 (0 no effect, 100 complete control), read-out: Plant response rating, Surinam Grass) of 90%, a pest or weed control at 250 g/ha ([2]; Urochloa decumbens, post-emergence, Postemergence, 250 g ai/ha, scale 0 to 100 (0 no effect, 100 complete control), read-out: Plant response rating, Surinam Grass) of 90% and a pest or weed control at 31 g/ha ([2]; Urochloa decumbens, pre-emergence, Preemergence, 31 g ai/ha, scale 0 to 100 (0 no effect, 100 complete control), read-out: Plant response rating, Surinam Grass) of 0%. The pest or weed control at 62 g/ha ([2]; Urochloa decumbens, pre-emergence, Preemergence, 62 g ai/ha, scale 0 to 100 (0 no effect, 100 complete control), read-out: Plant response rating, Surinam Grass) was 80%, the pest or weed control at 125 g/ha ([2]; Urochloa decumbens, pre-emergence, Preemergence, scale 0 to 100, 0 no effect, 100 complete control, read-out: Plant response rating, Surinam Grass) was 95% and the “Bermudagrass plant response rating (0 to 100 scale)” value [3, 8] was 90. It also gave a pest or weed control at 31 g/ha ([3]; Cynodon dactylon, post-emergence, postemergence, scale 0 to 100, 0 is no effect, 100 is complete control, read-out: Plant response rating, Bermudagrass) of 80%, a pest or weed control at 125 g/ha ([3]; Cynodon dactylon, post-emergence, Postemergence, scale 0 to 100 (0 no effect, 100 complete control), read-out: Plant response rating, Bermudagrass) of 95% and a pest or weed control at 250 g/ha ([3]; Cynodon dactylon, post-emergence, Postemergence, 250 g ai/ha, scale 0 to 100 (0 no effect, 100 complete control), read-out: Plant response rating, Bermudagrass) of 95%. The pest or weed control at 31 g/ha ([3]; Cynodon dactylon, pre-emergence, Preemergence, scale 0 to 100 (0 no effect, 100 complete control), read-out: Plant response rating, Bermudagrass) was 95%, the pest or weed control at 62 g/ha ([3]; Cynodon dactylon, pre-emergence, Preemergence, 62 g ai/ha, scale 0 to 100, 0 no effect, 100 complete control, read-out: Plant response rating, Bermudagrass) was 95% and the pest or weed control at 125 g/ha ([3]; Cynodon dactylon, pre-emergence, Preemergence, scale 0 to 100, 0 no effect, 100 complete control, read-out: Plant response rating, Bermudagrass) was 100%. The “Bermudagrass plant response rating” value ([3]; Preemergence, 250 g ai/ha, 0 to 100 scale, 0 no effect, 100 complete control) was 100, the “Blackgrass plant response rating (0 to 100 scale)” value [4, 8] was 0 and the pest or weed control at 31 g/ha ([4]; Alopecurus myosuroides, post-emergence, 360 h, postemergence, scale 0 to 100, 0 is no effect, 100 is complete control, read-out: Plant response rating, Blackgrass) was 0%. The pest or weed control at 125 g/ha ([4]; Alopecurus myosuroides, post-emergence, 360 h, Postemergence, scale 0 to 100 (0 no effect, 100 complete control), read-out: Plant response rating, Blackgrass) was 5%, the pest or weed control at 250 g/ha ([4]; Alopecurus myosuroides, post-emergence, 360 h, Postemergence, 250 g ai/ha, scale 0 to 100 (0 no effect, 100 complete control), read-out: Plant response rating, Blackgrass) was 5% and the pest or weed control at 31 g/ha ([4]; Alopecurus myosuroides, pre-emergence, 360 h, Preemergence, scale 0 to 100 (0 no effect, 100 complete control), read-out: Plant response rating, Blackgrass) was 0%. For the same molecule, the pest or weed control at 62 g/ha ([4]; Alopecurus myosuroides, pre-emergence, 360 h, Preemergence, 62 g ai/ha, scale 0 to 100, 0 no effect, 100 complete control, read-out: Plant response rating, Blackgrass) was 0%, the pest or weed control at 125 g/ha ([4]; Alopecurus myosuroides, pre-emergence, 360 h, Preemergence, scale 0 to 100, 0 no effect, 100 complete control, read-out: Plant response rating, Blackgrass) was 0% and the “Blackgrass plant response rating” value [4, 9] was 20. The “Corn plant response rating (0 to 100 scale)” value (corn (Zea mays); [8]) was 60, the “Corn plant response rating” value (corn (Zea mays); [9]) was 0 and the Corn plant response rating (crop injury, 0 = no effect, 100 = complete kill) at 31 g/ha (corn (Zea mays); Zea mays, post-emergence, postemergence, scale 0 to 100, 0 is no effect, 100 is complete control) was 25%. The Corn plant response rating (crop injury, 0 = no effect, 100 = complete kill) at 125 g/ha (corn (Zea mays); Zea mays, post-emergence, Postemergence, scale 0 to 100 (0 no effect, 100 complete control)) was 80%, the Corn plant response rating (crop injury, 0 = no effect, 100 = complete kill) at 250 g/ha (corn (Zea mays); Zea mays, post-emergence, Postemergence, 250 g ai/ha, scale 0 to 100 (0 no effect, 100 complete control)) was 85% and the Corn plant response rating (crop injury, 0 = no effect, 100 = complete kill) at 31 g/ha (corn (Zea mays); Zea mays, pre-emergence, Preemergence, scale 0 to 100 (0 no effect, 100 complete control)) was 0%. For the same molecule, the Corn plant response rating (crop injury, 0 = no effect, 100 = complete kill) at 62 g/ha (corn (Zea mays); Zea mays, pre-emergence, Preemergence, 62 g ai/ha, scale 0 to 100, 0 no effect, 100 complete control) was 0%, the Corn plant response rating (crop injury, 0 = no effect, 100 = complete kill) at 125 g/ha (corn (Zea mays); Zea mays, pre-emergence, Preemergence, scale 0 to 100, 0 no effect, 100 complete control) was 0% and the “Johnsongrass plant response rating (0 to 100 scale)” value [5, 8] was 85. For the same molecule, the “Johnsongrass plant response rating” value [5, 9] was 70, the pest or weed control at 31 g/ha ([5]; Sorghum halepense, post-emergence, postemergence, scale 0 to 100, 0 is no effect, 100 is complete control, read-out: Plant response rating, Johnsongrass) was 65% and the pest or weed control at 125 g/ha ([5]; Sorghum halepense, post-emergence, Postemergence, scale 0 to 100 (0 no effect, 100 complete control), read-out: Plant response rating, Johnsongrass) was 90%. The pest or weed control at 250 g/ha ([5]; Sorghum halepense, post-emergence, Postemergence, 250 g ai/ha, scale 0 to 100 (0 no effect, 100 complete control), read-out: Plant response rating, Johnsongrass) was 95%, the pest or weed control at 31 g/ha ([5]; Sorghum halepense, pre-emergence, Preemergence, scale 0 to 100 (0 no effect, 100 complete control), read-out: Plant response rating, Johnsongrass) was 0% and the pest or weed control at 62 g/ha ([5]; Sorghum halepense, pre-emergence, Preemergence, 62 g ai/ha, scale 0 to 100, 0 no effect, 100 complete control, read-out: Plant response rating, Johnsongrass) was 5%. The pest or weed control at 125 g/ha ([5]; Sorghum halepense, pre-emergence, Preemergence, scale 0 to 100, 0 no effect, 100 complete control, read-out: Plant response rating, Johnsongrass) was 60%, the “Lambsquarters plant response rating (0 to 100 scale)” value [6, 8] was 98 and the pest or weed control at 31 g/ha ([6]; Chenopodium album, post-emergence, postemergence, scale 0 to 100, 0 is no effect, 100 is complete control, read-out: Plant response rating, Lambsquarters) was 95%. The pest or weed control at 125 g/ha ([6]; Chenopodium album, post-emergence, Postemergence, scale 0 to 100 (0 no effect, 100 complete control), read-out: Plant response rating, Lambsquarters) was 98%, the pest or weed control at 250 g/ha ([6]; Chenopodium album, post-emergence, Postemergence, 250 g ai/ha, scale 0 to 100 (0 no effect, 100 complete control), read-out: Plant response rating, Lambsquarters) was 98% and the pest or weed control at 31 g/ha ([6]; Chenopodium album, pre-emergence, Preemergence, scale 0 to 100 (0 no effect, 100 complete control), read-out: Plant response rating, Lambsquarters) was 98%. The pest or weed control at 62 g/ha ([6]; Chenopodium album, pre-emergence, Preemergence, 62 g ai/ha, scale 0 to 100, 0 no effect, 100 complete control, read-out: Plant response rating, Lambsquarters) was 100%, the pest or weed control at 125 g/ha ([6]; Chenopodium album, pre-emergence, Preemergence, scale 0 to 100, 0 no effect, 100 complete control, read-out: Plant response rating, Lambsquarters) was 100% and the “Lambsquarters plant response rating” value [6, 9] was 100. The “Crabgrass, Large plant response rating (0 to 100 scale)” value [7, 8] was 90, the pest or weed control at 31 g/ha ([7]; Digitaria sanguinalis, post-emergence, postemergence, scale 0 to 100, 0 is no effect, 100 is complete control, read-out: Plant response rating, Crabgrass, Large) was 85% and the pest or weed control at 125 g/ha ([7]; Digitaria sanguinalis, post-emergence, Postemergence, 125 g ai/ha, scale 0 to 100 (0 no effect, 100 complete control), read-out: Plant response rating, Crabgrass, Large) was 95%. It also gave a pest or weed control at 250 g/ha ([7]; Digitaria sanguinalis, post-emergence, Postemergence, 250 g ai/ha, scale 0 to 100 (0 no effect, 100 complete control), read-out: Plant response rating, Crabgrass, Large) of 95%, a pest or weed control at 31 g/ha ([7]; Digitaria sanguinalis, pre-emergence, Preemergence, scale 0 to 100 (0 no effect, 100 complete control), read-out: Plant response rating, Crabgrass, Large) of 70% and a pest or weed control at 62 g/ha ([7]; Digitaria sanguinalis, pre-emergence, Preemergence, 62 g ai/ha, scale 0 to 100, 0 no effect, 100 complete control, read-out: Plant response rating, Crabgrass, Large) of 98%.
